Laboratory results from publication PMC11493595, “Stretching the structural envelope of imatinib to reduce β-amyloid production by modulating both β- and γ-secretase cleavages of APP” (Frontiers in Chemistry, 2024).
Like-named read-outs stand apart in the source and are kept apart here.

Experiments:
N2a695 cells [1] = assay: Aβ38, Aβ40, Aβ42 in conditioned media of N2a695 cells, MSD ELISA; assay type: cell-based; conditions: N2a695 cell supernatant, 5 h, single experiment
N2a695 cells [2] = assay: as above; assay type: cell-based; conditions: N2a695 cell supernatant, 5 h, single experiment; remark: listed apart in the source
Experimental: (§1) N2a695 were cultured in 1:1 OptiMem Reduced Serum Media (Life Technologies): Dulbecco’s Modified Eagle Medium ([+] 4.5 g/L D-glucose [+] L-Glutamine; [−] Sodium pyruvate (Life Technologies) supplemented with 5% fetal bovine serum, 0.4% Penstrep and 0.4% Geneticin and incubated at 37°C in 5% CO2. Antibodies were obtained from The Laboratory of Molecular and Cellular Neuroscience at The Rockefeller University. Human Aβ40 and Aβ42 ELISA plates (Life Technologies) and Plus MSD (Mesoscale Discovery) plates for Aβ Peptide (Aβ38, Aβ40 and Aβ42) Panel 1 (6E10) Kit (Catalog number K15200G) were obtained from Thermo Fisher, Life Technologies and Meso Scale Discovery.
(§2) N2a695 cells were used to screen all new compounds and in the follow-up studies with compounds found active in the preliminary screen. In a typical experiment, 6-well tissue culture plates (Corning) were seeded at 4.0 × 10^5–4.5 × 10^5 N2a695 cells/mL, 2 mL/well for overnight incubation. When cells were >95% confluent, media were exchanged with fresh media containing 10 µM solutions of compounds or DMSO carrier alone and cells were incubated at 37°C in 5% CO2 for 5 h. Culture media were collected and soluble Aβ concentrations in the media were determined by ELISA or MSD plates for human Aβ peptides as per manufacturer instructions. Signals for Aβ were measured using Perkin Elmer Envision and SQ120 MSD ELISA reader. Follow-up studies with N2a695 cells were performed similarly.
Similarly, we evaluated all IMTi-1 and IMTi-2 analogs, including the Boc-protected compounds, using N2a695 cells. […] To further examine the activities of the active analogs and whether IMTi’s has any bias on amyloidogenic vs. nonamyloidogenic cleavage of APP, we retested dozens of IMTi-1 and 2 analogs, including several found active in the screening assay and some tested for the first time using N2a695 cells as above, and performed MSD ELISA of the conditioned media to measure Aβ40, Aβ38, and Aβ42 peptides simultaneously.

[3] = system: β- and γ-cleavages of APP; assay: Aβ in N2a cells transiently transfected with APP-FL or APP99 (APP-βCTF): BACE vs γ-secretase cleavage; assay type: cell-based; conditions: N2a cells transiently transfected with APP695 (APP-FL) or APP C99, 5 h
Experimental: To determine effects of compounds on BACE1 vs. GS inhibition, we used N2a cells transiently transfected with full length APP (APP-FL) or with APP99 (APP-βCTF) as described previously ([Netzer et al., 2017]; [Sun et al., 2019]). After 48 h, media were removed and fresh media containing compound 1a and analogs were added. Following 5 h of incubation, cell supernatants were collected, and analyzed using MSD-ELISA for Aβ and sAPPα and western blot for sAPPβ.
We focused on IMTi-1 and its analogs 1d, 1f and 1p. […] To test whether these compounds lower Aβ levels by affecting the BACE and/or γ-secretase cleavages, we transfected wild-type (wt) cells with APP-FL and APP βCTF (C99), respectively, and incubated the cells with IMTi-1 (isomer) and analogs 1d, 1f and 1p. We used BACE inhibitor, MK8931, and γ-secretase inhibitor, DAPT, as controls and performed the experiments and processed the results as described previously ([Sun et al., 2019]).

[4] = In vivo brain permeability and retention, LC-MS/MS of brain and plasma; set-up: species or system C57BL/6J WT mice; conditions: for concentration at 4 h: C57BL/6J, mouse, ip, 2 months old WT mice, 50 mg/kg i.p., 4 h after injection, mesylate salt
Experimental: All procedures involving animals were approved by The Rockefeller University Institutional Animal Care and Use Committee and were in accordance with the National Institutes of Health guidelines. […] Mice were euthanized 4 h post drug administration and brain hemispheres and plasma were harvested and collected in pre-weighted tubes and snap-frozen in liquid nitrogen. To measure brain and plasma concentrations of the specific compounds, mouse brain tissue was homogenized and extracted using Ethanol, and plasma samples were extracted using Acetonitrile. Concentration of the drug and metabolites in brain and in plasma was determined by LC-MS/MS analysis.
After tubes were weighed to calculate brain weight and thawed to room temperature, 1 mL of EtOH (200 Proof) was added to the microcentrifuge tubes containing the harvested right brain hemispheres. 10 μL of 1 µM internal standard (ABG190, a synthetic analog of 1a) was added to each tube and samples were sonicated to homogeneity (∼2 min). Tubes were shaken at 40 min at room temperature (1K RPM) and centrifuged for 8 min at 13K RPM. The supernatant (0.9 mL) was transferred to a new collection tube and 0.5 mL EtOH was added to the pellet for a second round of extraction as described above. 600 μL of the supernatant was combined with the first collection before samples were submitted for LCMS-MS analysis ([Sun et al., 2019]).
300 μL of acetonitrile was added to collected blood samples. 10 μL of 1 µM internal standard (ABG190) was added to each tube and samples were sonicated to homogeneity (∼2 min). Tubes were […] at 13 K RPM for 9 min 300 μL of the supernatant was collected and combined with 500 µL of 5 mM ammonium formate before samples were submitted for LCMS-MS analysis ([Sun et al., 2019]).

N2a695 cells [5] = assay: Screening of Aβ production in N2a695 cells (Aβ ELISA of cell supernatants); assay type: cell-based; conditions: N2a695 cells; for Aβ production in the screen (Fig. S1) / Aβ40 levels: 10 µM
Experimental: as §1, §2
Specifically, we exposed N2a695 cells to increasing concentrations of each compound and measured the production of Aβ38, 40, and 42. […] Remarkably, this occurs for all Aβ peptides tested shorter than 40 amino acids (Figure 2C). Moreover, for some compounds that modulate γ-secretase activity most conspicuously at 5 μM, this effect vanishes at 10 μM, relative to controls (Figure 2B, C). […]

Row | Brain exposure ([4]; 2 months old mice, 4 h post administration) | concentration at 4 h ([4]; brain, read-out: Brain concentration) [ng/g] | concentration at 4 h ([4]; plasma, read-out: Plasma concentration) [µg/mL] | Structure (SMILES) | activity at 5 µM (N2a695 cells [1]; read-out: % Aβ38 of DMSO ctrl) [%] | activity at 5 µM (N2a695 cells [1]; read-out: % Aβ40 of DMSO ctrl) [%] | activity at 5 µM (N2a695 cells [1]; read-out: % Aβ42 of DMSO ctrl) [%] | activity at 10 µM (N2a695 cells [2]; read-out: % Aβ38 of DMSO ctrl) [%] | activity at 10 µM (N2a695 cells [2]; read-out: % Aβ40 of DMSO ctrl) [%] | activity at 10 µM (N2a695 cells [2]; read-out: % Aβ42 of DMSO ctrl) [%] | BACE and γ-secretase cleavage of APP, Aβ levels [3] | Aβ production in the screen (Fig. S1) (N2a695 cells [5]) | Aβ40 levels (N2a695 cells [5]) [%] | Activity in Aβ production assays (N2a695 cells [5])
1 | – | – | – | Cc1ccccc1Nc1nccc(-c2cncc(NC(=O)c3ccc(C4CCCNC4)cc3)c2)n1 (stereo not drawn) [Compound 1L] | 107 | 48 | 43 | 52 | 21 | 17 | – | – | – | –
2 | – | – | – | Cc1ccccc1Nc1nccc(-c2cccc(NC(=O)c3ccc(CN4CCN(C)CC4)cc3)c2)n1 [Compound 1a] | 105 | 57 | 49 | 86 | 40 | 35 | – | – | – | –
3 | – | – | – | Cc1ccccc1Nc1nccc(-c2cncc(NC(=O)c3ccc(CN4CCNCC4)cc3)c2)n1 [Compound 1b] | 95 | 56 | 53 | 61 | 34 | 33 | – | – | – | –
4 | – | – | – | Cc1ccccc1Nc1nccc(-c2cccc(NC(=O)c3ccc(N4CCN(C)CC4)cc3)c2)n1 [Compound 1d] | 60 | 34 | 28 | 22 | 14 | 11 | lower BACE and γ-secretase cleavage of APP | – | – | –
5 | – | – | – | Cc1ccccc1Nc1nccc(-c2cncc(NC(=O)c3ccc(CCN(C)C)cc3)c2)n1 [Compound 1e] | 99 | 57 | 54 | 91 | 46 | 44 | – | – | – | –
6 | high brain exposure | 92 | 0.55 | Cc1ccccc1Nc1nccc(-c2cccc(NC(=O)c3ccc(CCN(C)C)cc3)c2)n1 [Compound 1f] | 113 | 52 | 45 | 80 | 29 | 26 | lower BACE and γ-secretase cleavage of APP | – | – | –
7 | – | – | – | Cc1ccccc1Nc1nccc(-c2cncc(NC(=O)c3ccc(CNCC(C)(C)C)cc3)c2)n1 [Compound 1h] | 106 | 64 | 58 | 80 | 43 | 43 | – | – | – | –
8 | – | – | – | Cc1ccccc1Nc1nccc(-c2cccc(NC(=O)c3ccc(CN(CC(C)(C)C)C(=O)OC(C)(C)C)cc3)c2)n1 [Compound 1i-Boc] | – | – | – | – | – | – | – | increase in Aβ production | – | –
9 | – | – | – | Cc1ccccc1Nc1nccc(-c2cccc(NC(=O)c3ccc(CNCC(C)(C)C)cc3)c2)n1 [Compound 1i] | 106 | 56 | 58 | 85 | 41 | 46 | – | – | – | –
10 | – | – | – | Cc1ccccc1Nc1nccc(-c2cncc(NC(=O)c3ccc(CNC4CCCCC4)cc3)c2)n1 [Compound 1j] | 112 | 83 | 75 | 123 | 73 | 65 | – | – | – | –
11 | – | – | – | Cc1ccccc1Nc1nccc(-c2cccc(NC(=O)c3ccc(CN(C(=O)OC(C)(C)C)C4CCCCC4)cc3)c2)n1 [Compound 1k-Boc] | – | – | – | – | – | – | – | increase in Aβ production | – | –
12 | – | – | – | Cc1ccccc1Nc1nccc(-c2cccc(NC(=O)c3ccc(CNC4CCCCC4)cc3)c2)n1 [Compound 1k] | 120 | 60 | 56 | 92 | 38 | 38 | – | – | – | –
13 | – | – | – | Cc1ccccc1Nc1nccc(-c2cncc(NC(=O)c3ccc(C4CCCN(C)C4)cc3)c2)n1 (stereo not drawn) [Compound 1n] | 112 | 63 | 56 | 95 | 42 | 38 | – | – | – | –
14 | – | – | – | CN(C)CCc1ccc(C(=O)Nc2cccc(-c3ccnc(Nc4cccnc4)n3)c2)cc1 [Compound 1p] | 58 | 41 | 38 | 24 | 18 | 15 | lower BACE and γ-secretase cleavage of APP | – | – | –
15 | – | – | – | Cc1ccc(Nc2nccc(-c3ccc(CNC4CCCCC4)cc3)n2)cc1NC(=O)c1cccnc1 [Compound 2b] | 93 | 90 | 88 | 74 | 71 | 74 | – | – | – | –
16 | – | – | – | Cc1ccc(Nc2nccc(-c3ccc(CN4CCN(C)CC4)cc3)n2)cc1NC(=O)c1cccnc1 [IMTi-2] | – | – | – | – | – | – | – | – | 68 | active
17 | – | – | – | Cc1ccc(CN2CCN(Cc3ccc(C(=O)Nc4cccnc4)cc3)CC2)cc1Nc1ncccn1 [IMTi-3] | – | – | – | – | – | – | – | – | 93 | inactive
